Assay results as given in EP0970697A1, “CERVICAL MATURING AGENT” (TORAY INDUSTRIES, INC., priority 1997, dated 1999).
Read-outs that look alike come from different tables or passages of the source.

Key:
cervical canal [1] = experiment: Cervical ripening action (maximum tension and slope in extension of the extracted cervical canal after intravaginal administration); type: in vivo, Hartley mature guinea pigs; conditions: 10µg, intravaginal administration three times, cervical canal extracted 4 hours after final administration; maximum tension and slope compared with the base administration group, Dunnett's method
Procedure: The cervical ripening actions of compounds of formula (I) were examined by using Hartley mature guinea pigs (nine-week-old, clean animals).
In order to compare with these compounds, the action of BPS was also tested. Experiment was carried out for 4 to 14 samples per group.
In the test, 100 µl of a test medicine or a base thereof was administered to the vagina at 9 o'clock and 17 o'clock, and 9 o'clock on the next day, and a guinea pig was dissected to extract the cervical canal 4 hours after the final administration. Then, the cervical canal was extended at a rate of 2 mm/min to measure tension generated in the tissue with time. As an index for cervical ripening, the maximum tension generated up to breakage of the tissue, and the slope obtained by dividing the maximum tension by the distance of extension were examined. It is thought that decreases in these values indicate ripening of the cervical canal. A test medicine was dissolved in phosphate buffered saline, and then mixed with 3% hydroxypropyl cellulose.
Figs. 1 and 2 show changes in the maximum tension and the slope, respectively, caused by the test medicines. (*: P < 0.05, **: P < 0.01, Dunnett's method, comparison with the base administration group).

cervical canal [2] = conditions: mice; high dosage of 100 µg to 200 µg (about 2 to 4 mg per kg of weight) required; cited from earlier work

In the case of `CC#CCC(C)[C@H](O)/C=C/[C@@H]1[C@H]2c3cccc(CCCC(=O)O)c3O[C@H]2C[C@H]1O` (mixture of isomers) [BPS, beraprost sodium, reference compound], the cervical ripening action (cervical canal [1]) is given as “no cervical ripening action” and the cervical ripening action (cervical canal [2]) is given as “exhibits a cervical ripening action”.
For `O=C(O)COc1cccc2c1OC1CC(O)C(C=CC(O)C3CCCC3)C21` (centres unmarked) [Compound-1], the cervical ripening action (cervical canal [1]) was “significant cervical ripening action”.
With `O=C(O)COc1cccc2c1OC1CC(O)C(C=CC(O)C3CCCCC3)C21` (centres unmarked) [Compound-2] the cervical ripening action (cervical canal [1]) was “significant cervical ripening action”.
For `O=C(O)CCc1cccc2c1O[C@H]1C[C@@H](O)[C@H](/C=C/[C@@H](O)CC3CCCCC3)[C@@H]21` [Compound-3], the cervical ripening action (cervical canal [1]) was “significant cervical ripening action”.
